Structures can show the parent of a compound that is named as a salt. Where two headings read alike, the source gives them in different places.
How the values were obtained:
[1] = tested on: EHV-4 405/76 reference strain; experiment: RTCA; type: cell-based, Equid herpesvirus 4; details: for AUCn: area under normalized Cell Index curves, 0-120 hpi, EHV-4-infected E. Derm cells
[2] = tested on: EHV-4 405/76 reference strain; experiment: microbe, parasite or virus in culture
[3] = tested on: EHV-4 405/76 reference strain; experiment: microbe, parasite or virus in culture; remark: listed apart in the source
[4] = tested on: EHV-4 405/76 reference strain; details: ratio of CC50 to EC50 obtained by qPCR
[5] = Cytotoxicity by impedance using RTCA; details: horse, E. Derm cells
[6] = Cytotoxicity by CellTiter-Glo; details: horse
[7] = tested on: EHV-4 405/76 reference strain; details: for CIT50 increase: RTCA, EHV-4-infected E. Derm cells; for Si (CC50/EC50, RTCA): ratio of CC50 to EC50 obtained by RTCA
[8] = in vitro; details: horse
[9] = in vitro; details: horse; remark: listed apart in the source
[10] = Equid alphaherpesvirus 4, read-out: RTCA EC50 (µM ± S.D)
[11] = Equid alphaherpesvirus 4, read-out: qPCR EC50 (µM ± S.D)
[12] = Equid alphaherpesvirus 4, read-out: qPCR EC50 (µg/mL ± S.D)
[13] = Equid alphaherpesvirus 4, read-out: RTCA EC50 (µg/mL ± S.D)
[14] = Equid alphaherpesvirus 4, 120 h, read-out: %AUCn

SMILES | AUCn ([1]; 0.4 µM) | AUCn ([1]; 2 µM) | AUCn ([1]; 10 µM) | AUCn ([1]; 50 µM) | further results
C[C@@]1(O)[C@H](O)[C@@H](CO)O[C@H]1n1ccc(N)nc1=O [2′-C-methylcytidine] | 37.52 | 35.13 | 26.93 | 30.32 | 
O=c1[nH]cc(F)c(=O)[nH]1 [5-fluorouracil] | 39.89 | 31.41 | 31.13 | 36.75 | 
Sc1ncnc2nc[nH]c12 [6-mercaptopurine] | 39.53 | 37.02 | 28.97 | 27.72 | 
Nc1nc2nc[nH]c2c(=S)[nH]1 [6-thioguanine] | 37.89 | 38.05 | 34.04 | 29.32 | 
C[C@H](CCCC(C)(C)O)[C@H]1CC[C@H]2[C@@H]3CC=C4C[C@@H](O)CC[C@]4(C)[C@H]3CC[C@]12C [25-hydroxycholesterol] | 39.29 | 34.81 | 29.79 | 31.86 | 
Nc1nc(NC2CC2)c2ncn([C@H]3C=C[C@@H](CO)C3)c2n1 [Abacavir sulfate] | 38.16 | 32.21 | 31.76 | 32.99 | 
CC(C)(C)C(=O)OCOP(=O)(COCCn1cnc2c(N)ncnc21)OCOC(=O)C(C)(C)C [Adefovir dipivoxil] | 99.92 | 93.75 | 73.47 | 39.70 | 
C[C@@]1(CO)[C@H](O)CC[C@@]2(C)[C@H]1CC[C@H]1C[C@@H]3C[C@@]12CC[C@]3(O)CO [Aphidicolin] | 27.44 | 81.72 | 106.29 |  | EC50 [2, 10]: 2.16 ± 0.18 µM; EC50 [3, 11]: 0.31 ± 0.09 µM; EC50 [3, 12]: 0.11 ± 0.03 µg/mL; SI (CC50 CellTiter-Glo/EC50 qPCR) [4]: >161.29; CC50 [5]: > 50 µM; CC50 [6]: > 50 µM; CIT50 increase ([7]; 1.25 µM): 7.48 ± 2.69 h; CIT50 increase ([7]; 2.5 µM): 22.43 ± 4.89 h; Si (CC50/EC50, RTCA) [7]: >23.15
CCOC(=O)c1c(CSc2ccccc2)n(C)c2cc(Br)c(O)c(CN(C)C)c12 [Arbidol] | 31.88 | 39.33 | 37.59 | 35.06 | 
Cc1nc(N(C)C(=O)Cc2ccc(-c3ccccn3)cc2)sc1S(N)(=O)=O [BAY 57-1293, pritelivir] | 27.43 | 27.62 | 44.70 | 145.59 | EC50 [2, 10]: 17.8 ± 1.2 µM; EC50 [2, 13]: 7.15 ± 0.48 µg/mL; EC50 [3, 11]: 3.31 ± 0.89 µM; EC50 [3, 12]: 1.33 ± 0.36 µg/mL; SI (CC50 CellTiter-Glo/EC50 qPCR) [4]: >15.11; CC50 [5]: > 50 µM; CC50 ([6]; E. Derm cells): > 50 µM; Si (CC50/EC50, RTCA) [7]: >2.81
O=c1[nH]c(=O)n([C@H]2C[C@H](O)[C@@H](CO)O2)cc1/C=C/Br [Brivudine] | 28.13 | 30.37 | 31.74 | 36.82 | 
CCCCCOC(=O)Nc1nc(=O)n([C@@H]2O[C@H](C)[C@@H](O)[C@H]2O)cc1F [Capecitabine] | 35.92 | 36.42 | 36.13 | 33.97 | 
Nc1ccn([C@@H]2O[C@H](CO)[C@@H](O)[C@@H]2O)c(=O)n1 [Cytarabine] | 28.59 | 32.46 | 91.79 | 91.89 | 
Cc1ccc2c(=O)c3cccc(CC(=O)O)c3oc2c1C [DMXAA] | 36.50 | 37.99 | 41.23 | 60.10 | 
O=c1[nH]cnc2c1ncn2[C@H]1CC[C@@H](CO)O1 [Didanosine] | 37.77 | 36.23 | 29.27 | 38.91 | 
O=C(N/N=C/c1ccc(O)c(O)c1)c1cc2ccccc2cc1O [Dynasore] | 13.10 | 13.81 | 18.85 | 23.18 | 
NCCCC(N)(C(=O)O)C(F)F (stereo not shown) [Eflornithin (dfmo), Eflornithin] | 44.63 | 32.10 | 30.27 | 32.46 | 
Nc1nc(=O)n([C@@H]2CS[C@H](CO)O2)cc1F [Emtricitabine] | 36.81 | 35.47 | 34.12 | 37.28 | 

SMILES | AUCn ([1]; 0.4 µM) | AUCn ([1]; 2 µM) | AUCn ([1]; 10 µM) | AUCn ([1]; 50 µM) | further results
CC(=O)OCC(CCn1cnc2cnc(N)nc21)COC(C)=O [Famciclovir] | 39.12 | 34.29 | 36.03 | 37.57 | 
NC(=O)c1nc(F)c[nH]c1=O [Favipiravir] | 30.35 | 41.18 | 37.23 | 74.44 | 
CC(C)n1c(/C=C/C(O)CC(O)CC(=O)O)c(-c2ccc(F)cc2)c2ccccc21 (stereo not shown) [Fluvastatin] | 33.08 | 16.45 | 11.66 | 13.86 | 
Nc1nc(O)c2ncn(COC(CO)CO)c2n1 [Ganciclovir] | 57.9 | 74.3 | 116.3 | 138.7 | EC50 [2, 10]: 4.05 ± 0.22 µM; EC50 [2, 13]: 1.03 ± 0.06 µg/mL; EC50 [3, 11]: 1.32 ± 1.06 µM; EC50 [3, 12]: 0.34 ± 0.27 µg/mL; SI (CC50 CellTiter-Glo/EC50 qPCR) [4]: >37.88; CC50 [8]: > 50 µM; CC50 [9]: > 50 µM; Si (CC50/EC50, RTCA) [7]: >12.35
O=c1c(-c2ccc(O)cc2)coc2cc(O)cc(O)c12 [Genistein] | 11.7 | 12.8 | 13.3 | 11.8 | activation at 0.4 µM [1, 14]: -17.5%; activation at 2 µM [1, 14]: -9.65%; activation at 10 µM [1, 14]: -6.34%; activation at 50 µM [1, 14]: -16.7%
O=c1[nH]c(=O)n([C@H]2C[C@H](O)[C@@H](CO)O2)cc1I [Idoxuridine] | 36.8 | 30.6 | 63.0 | 143.7 | EC50 [2, 10]: 33.8 ± 15.8 µM; EC50 [2, 13]: 11.9 ± 5.61 µg/mL; EC50 [3, 11]: 7.49 ± 1 µM; EC50 [3, 12]: 2.65 ± 0.35 µg/mL; SI (CC50 CellTiter-Glo/EC50 qPCR) [4]: >6.68; CC50 [8]: > 50 µM; CC50 [9]: > 50 µM; Si (CC50/EC50, RTCA) [7]: >1.48
CC(C)Nc1nc2cc(Cl)c(Cl)cc2n1[C@H]1O[C@@H](CO)[C@H](O)[C@@H]1O [Maribavir] | 33.80 | 34.21 | 32.99 | 45.42 | 
COc1nc(N)nc2c1ncn2[C@@H]1O[C@H](CO)[C@@H](O)[C@@H]1O [Nelarabine] | 33.26 | 32.33 | 30.63 | 40.34 | 
Nc1nc2c(ncn2CCC(CO)CO)c(=O)[nH]1 [Penciclovir] | 36.54 | 33.23 | 30.15 | 42.37 | 
CC[C@H](C)C(=O)O[C@H]1C[C@H](O)C=C2C=C[C@H](C)[C@H](CC[C@@H](O)C[C@@H](O)CC(=O)O)[C@H]21 [Pravastatin] | 45.23 | 36.52 | 37.85 | 30.29 | 
[H]/N=C(\N/C(=N/[H])Nc1ccc(Cl)cc1)NC(C)C [Proguanil hydrochloride] | 34.82 | 36.10 | 38.33 | 59.56 | 
CCC(C)(C)C(=O)O[C@H]1C[C@@H](C)C=C2C=C[C@H](C)[C@H](CC[C@@H]3C[C@@H](O)CC(=O)O3)[C@H]21 [Simvastatin] | 34.65 | 32.56 | 24.99 | 20.58 | 
CC(C)OC(=O)[C@H](C)N[P@](=O)(OC[C@H]1O[C@@H](n2ccc(=O)[nH]c2=O)[C@](C)(F)[C@@H]1O)Oc1ccccc1 [Sofosbuvir] | 35.31 | 33.28 | 34.01 | 35.76 | 
Cc1cn([C@H]2C=C[C@@H](CO)O2)c(=O)[nH]c1=O [Stavudine] | 37.85 | 32.94 | 32.23 | 30.20 | 
Cc1cn([C@@H]2C[C@@H](O)[C@H](CO)O2)c(=O)[nH]c1=O [Telbivudine] | 30.51 | 35.43 | 31.31 | 39.04 | 
CC(C)OC(=O)OCOP(=O)(CO[C@H](C)Cn1cnc2c(N)ncnc21)OCOC(=O)OC(C)C [Tenofovir disoproxil] | 34.89 | 43.49 | 93.87 | 52.88 | 
CC(C)[C@H](N)C(=O)OCCOCn1cnc2c(=O)[nH]c(N)nc21 [Valaciclovir] | 33.27 | 28.12 | 27.99 | 42.38 | 
Nc1ncnc2c1ncn2[C@@H]1O[C@H](CO)[C@@H](O)[C@@H]1O [Vidarabine] | 41.3 | 35.7 | 48.7 | 71.5 | EC50 [2, 10]: 17 ± 4.5 µM; EC50 [2, 13]: 4.85 ± 1.28 µg/mL; EC50 [3, 11]: 13.7 ± 1.92 µM; EC50 [3, 12]: 3.91 ± 0.55 µg/mL; CC50 [8]: > 50 µM; CC50 [9]: > 50 µM; Si (CC50/EC50, RTCA) [7]: >2.94

— article PMC11125953 (Viruses, 2024)
